# Measurements as given in US20210186834A1, “TAHITI VANILLA EXTRACT AND 4-[(1E,3S)-3-ETHENYL-3,7-DIMETHYLOCTA-1,6-DIENYL]PHENOL FOR COMBATTING CUTANEOUS AGEING” (PIERRE FABRE DERMO-COSMETIQUE, priority 2018, published 2021).
# Columns and labels:
# Format in all cases: cell-based
# IL8 = assay: Expression of IL8 by immunofluorescence after acute UVA stress on normal human fibroblasts; conditions: bakuchiol 0.5 μg/ml, UVA 60 J/cm^2, 24 h after irradiation; P<0.05 versus non-treated conditions
# Experimental: (§1) The fibroblasts are cultured in a standard culture medium for 36 hours, the products to test (vehicle (DMSO), bakuchiol (0.5 μg/ml), vanilla extract (0.05%, p/v) and the combination thereof (same concentrations)) are added to the culture medium one hour before the UVA radiation test. This test consists in a photo-ageing stress: the fibroblasts are irradiated by UVA at a dose of 60 J/cm^2 (Waldmann UVA lamp). A condition without irradiation is also realised. The fibroblasts are next sampled 24 h after irradiation for immunofluorescence analyses. All the experimental conditions are realised with N=3 donors. The fluorescence was quantified using Nikon NIS Element software in order to obtain an average fluorescence per cell and per condition. The protocol used is rigorously the same as that described in example 1. The products tested are the same, the concentrations also. The expression of IL8 is then quantified by immunofluorescence. The treatment of human fibroblasts with acute UVA stress induces a significant increase in the expression of IL8, going from 100% to 5300% (P<0.05) compared to the condition without irradiation. In addition, it appears that the treatment by UVA induces important morphological changes in the fibroblasts, going from a star-shaped model to a spindle-shaped model.
# normal human fibroblasts = assay: Morphological changes of fibroblasts induced by exposure to UVA; conditions: bakuchiol 0.5 μg/ml, vanilla extract 0.05% (p/v), combination at the same concentrations; UVA 60 J/cm^2
# Experimental: as §1
# protein P16 = assay: Expression of P16 by immunofluorescence after acute UVA stress on normal human fibroblasts; conditions: bakuchiol 0.5 μg/mL, added 1 h before UVA 60 J/cm^2, sampled 24 h after irradiation, N=3 donors; P=NS versus the non-treated group
# Experimental: The biological model used for this study consists of normal human dermis fibroblasts obtained from healthy donors. The fibroblasts are cultured in a standard culture medium for 36 hours, the products to test (vehicle (DMSO), bakuchiol (0.5 μg/ml), vanilla extract (0.05%, p/v) and the combination thereof (same concentrations)) are added to the culture medium one hour before the UVA radiation test. This test consists in a photo-ageing stress: the fibroblasts are irradiated by UVA at a dose of 60 J/cm^2 (Waldmann UVA lamp). A condition without irradiation is also realised. The fibroblasts are next sampled 24 h after irradiation for immunofluorescence analyses. All the experimental conditions are realised with N=3 donors. The fluorescence was quantified using Nikon NIS Element software in order to obtain an average fluorescence per cell and per condition. The treatment of human fibroblasts with acute UVA stress induces a significant increase in the expression of P16, going from 500 AU to almost 1000 AU, P<0.001, versus the non-stimulated condition. […] The statistics are produced using a one way variance analysis (one-way ANOVA) followed by a Dunnett test.
compound,measurement,setting,value
"C=C[C@@](C)(/C=C/c1ccc(O)cc1)CCC=C(C)C [bakuchiol, 4-[(1E,3S)-3-ethenyl-3,7-dimethylocta-1,6-dienyl]phenol]",decrease of the expression of IL8 following exposure to UVA,IL8,88.3%
same,effect on morphological changes (star-shaped to spindle-shaped) induced by exposure to UVA,normal human fibroblasts,prevention of the morphological changes
same,reduction of the expression of P16 following irradiation,protein P16,−44.4%
